Measured values from patent publication US20210128674A1, “LHRH-CONJUGATED PRODIGIOSIN AND USES THEREOF” (Worcester Polytechnic Institute, priority 2019, published 2021).
“Also recorded” adds a separate entry of the source.

Assays:
MDA-MB-231 cells = experiment: confocal fluorescence imaging of cellular uptake and cytotoxicity; assay type: cell-based, human; conditions: 30 μM; 6 hours
[1] = histopathological and toxicity studies (body weight, clinical signs, H&E of organs); assay type: in vivo, athymic nude mice; conditions: 10 mg/kg weekly for two weeks, IV; for toxicity / side effects (clinical signs, mortality, body weight): tumor-bearing mice
Description: (§1) Different groups of mice were injected intravenously with each drug through their tail veins. This was done after tumor growth for 14, 21 and 28 days. The mice were injected with 10 mg/kg per week, during the two-week periods in which the effects of drugs were investigated. Following each drug administration, the tumor sizes were monitored with calipers on a daily basis (every 24 hours). In this way, the possible tumor shrinkage, growth or elimination, were monitored on a daily basis. Furthermore, the health status of the mice was monitored on a daily basis. This was done by monitoring the mice for signs of weight loss or altered motor ability in their cages. At the end of study, the mice were euthanized, following the approved IACUC guidelines and procedures. Thereafter, tumor tissues were excised from all of the mice, including tissues from their major organs (kidneys, spleen, liver and lungs).
(§2) Following the in vivo tumor induction and growth experiments, tissues were extracted from the kidneys, spleen, lungs, liver and tumor regions. These were immediately fixed in 4% paraformaldehyde, dehydrated in a graded series of alcohol, and embedded in paraffin. Double doses of 10 mg/kg of PGS and PGS-[D-Lys6]LHRH were then administered (on a weekly basis for two weeks) to female athymic nude mice that were subcutaneously-induced with TNBC. In this way, qualitative toxicity was studied by considering differences in mortality, changes in body weight, clinical signs, gross observations and the histopathology of the lungs, kidneys and the liver at different stages of tumor development. This was done for the different drugs and cancer treatment durations. Daily observations and weight measurements were also used to check for possible animal reactions to the drugs, physiological changes, weight loss/gain, and the general well-being of the mice.
(§3) Hematoxylin and eosin (H and E) staining was also carried out. This was used for the identification of tumor necrosis and the examination of histologic changes that occurred in vital organs, following the administration of the drugs. Briefly, formalin-fixed, paraffin-embedded tissue/organs (tumor, kidneys, liver and lungs) samples (5 μm) were injected with PGS, [D-Lys6]LHRH-conjugated PGS, and DMSO. These were hydrated by passing them through decreasing concentrations (100, 90 &70%) of alcohol baths and water.
(§4) The hydrated tissue sections were then stained in hematoxylin solution for 5 mins. This was followed by rinsing with tap water for 3 minutes and differentiation in 1% acid alcohol for 5 minutes. Tap water was then used to rinse (three times) before dipping the sections in ammonia water for 2 minutes. This was followed by staining with eosin for 10 mins. The treated sliced samples were dehydrated in solution with increasing concentrations of alcohols followed by xylene. Finally, a few drops of Permount Mounting Medium were used to mount the resulting samples. The stained slides were then imaged with a 20× objective lens using a TS100F Nikon microscope (Nikon Instruments Inc., Melville, N.Y., USA) coupled with a DS-Fi3 C camera.

[2] = system: breast cancer cells with knocked down LHRH receptors (MDA-MB-231); experiment: alamar blue reduction after siRNA knock down of LHRH receptors; assay type: cell-based, human; conditions: 5 μM; 24, 48 and 72 hours; LHRH receptor knock down
[3] = system: MDA-MB-231 human triple negative breast cancer subcutaneous tumor xenografts; experiment: subcutaneous xenograft tumor shrinkage study; assay type: in vivo, Athymic Nude-Foxn1nu strain mice; conditions: for anti-tumor effect over early, mid and late stages: 14-day, 21-day and 28-day groups, 10 mg/kg IV
Description: In this section, cell culture, tumor induction and drug injection studies were carried out. First, 20 μl of 1×10^6 MDA-MB-231 human triple negative cancer cells were cultured in T75 tissue culture flasks (CELLTREAT, Pepperell, Mass., USA). This was carried out at 37° C. until 70% confluence was reached. The cells were grown under normal atmospheric pressure levels in a “L15^+ medium” that is typically made up of: L-15 medium (ATCC, Manassas, Va., USA), supplemented with 100 I.U./ml penicillin/100 µg/ml streptomycin and 10% FBS (ATCC, Manassas, Va., USA).
Forty 4-week old Athymic Nude-Foxn1nu strain mice with individual weights of ˜17 g each was purchase from Envigo (Somerset, N.J., USA). These animals were approved for use in the current work by the University of Massachusetts Medical School Institutional Animal Care and Use Committee (UMMS IACUC) with docket #A2630-17. All of the animals were maintained and used according to the approved UMMS IACUC procedure and guideline.
Subcutaneous tumor xenografts were induced by the injection of 5.0×10^6 of MDA-MB-231 human triple negative breast cancer cells (suspended in sterile saline) into the interscapular region (for a better angiogenic response). Tumor formation was carefully assessed by palpation. Tumor growth was then monitored daily with the digital calipers. The tumor volume was calculated using the following modified ellipsoidal formula: […]
where length was the longest axis of the tumor and width is the measurement at a right angle to the length.
The mice were randomly chosen in groups of three (for each drugs injection) into their respective treatment groups. These include groups of mice with early stage (14 days after tumor induction), mid stage (21 days after tumor induction) and late stage (28 days after tumor induction) tumors. The weights of the mice and their tumor sizes were monitored and measured (using digital calipers) on a daily basis. These precise volumes and measured weights of the mice were used to guide the administration of the drugs. They were also used to monitor toxicity and side effects associated with the drugs. For each of the study groups, 3 mice each were randomly assigned to injection of 10 mg/kg of the specific drug configuration (PGS, [D-Lys6]LHRH-conjugated PGS, and DMSO).
as §1

[4] = system: breast cancer tumor (LHRH receptors on triple negative breast tumor tissue); experiment: drug-tissue adhesion study with drug-coated AFM tips; assay type: binding, mice
Description: In an effort to understand the specificity in the targeting of triple negative breast cancer via the receptors that are over-expressed on the tumor, adhesion measurements were carried out on the control xenograft tissue samples at different stages of tumor development. Adhesion forces and interactions (between the different drug molecules and receptors on the surfaces of the tumor tissues at different stages of development) were explored in an effort to understand the interactions of the drugs with the tumor and non-tumor tissue.
Antigen retrieval was carried out on the fixed tissue. This involved exposing target antigens to receptors on a 10 μm thick microtome tissue slice. These sliced tissues were prepared for adhesion measurements in an Asylum MFP3D-Bio Atomic Force Microscope (AFM) (Asylum Research, Oxford Instrument, CA, USA). The AFM tips RESP-20 AFM tip (Bruker Santa Barbara, Calif., USA) were dip-coated with prodigiosin, or [D-Lys6]LHRH-conjugated prodigiosin using the techniques described in Obayemi et al. (J. Mech. Behav. Biomed. Mater., 68 (2017), pp. 276-286).
A simple AFM tip dip-coating technique (J. D. Obayemi et al. Materials Science and Engineering C. 66, (2016), 51-65, Hampp, E. et al. Res. 27 (22), 2891, Hutter, J. L. et al. Instrum. 64, 1868) (of the drugs) was used to coat the AFM tips at room-temperature (˜23° C.). In addition, a positive control of LHRH peptides was coated onto the AFM tips and used to determine the adhesion forces between the receptors on breast cancer tissue. All of the coated AFM tips were air-dried for about 6 h and kept in a desiccator overnight before the adhesion measurements.
The spring constants of the coated and uncoated AFM tips were measured experimentally using the thermal tune method (J. D. Obayemi, et al. Mater., 68 (2017), 276-286). This was done to obtain the actual spring constants that were used to calculate the pull-off forces from Hooke's law. The adhesion interactions were measured for the following configurations of coatings on the AFM tips and breast cancer tumor at different stages on the mice: […]

[5] = system: MDA-MB 231 induced xenograft breast tumor; experiment: histopathological (H&E) and TEM examination of treated tumor tissue; assay type: in vivo, mice; conditions: for histopathology of tumor tissue (necrosis): after treatment, H&E
Description: as §2, §3
as §4, with “The stained slides were then imaged with a 20× objective lens using a TS100F Nikon microscope (Nikon Instruments Inc., Melville, N.Y., USA) coupled with a DS-Fi3 C camera.” left out

[6] = 21-day (mid stage) group, 10 mg/kg per week IV, two weeks
[7] = 28-day (late stage) group, 10 mg/kg per week IV, two weeks
[8] = day 14 (early stage) group, two IV injections (one per week) of 10 mg/kg
[9] = listed as [D-Lys6]LHRH-conjugated PGS

Description for MDA MB 231 cells: The alamar blue cell viability and cytotoxicity assay was used to study the MDA MB 231 cells lines in the log phase of growth. MDA MB 231 cells were harvested with trypsin-EDTA in the presence of Dulbecco Phosphate Buffer (DPBS). 10^4 cells/well were then seeded in 12-well plates in L15+ medium (L15 medium with cell medium supplement of FBS and penicillin/streptomycin). […] Cell viability was monitored using the alamar blue cell viability and cytotoxicity reagent (Thermo Fisher Scientific, Waltham, Mass., USA) at times of 0 h, 18 h, 24 h, 48 h and 72 h, following drug addition. At each time point, the culture medium was replaced with 1 ml of 10% alamar blue solution (in culture medium). The 12-well plates were then incubated at 37° C. for different durations. After each time point, 100 μl of the solution incubated with alamar blue solution (ABS) was transferred into triplicate wells of a black opaque 96-well plate (Thermo Fisher Scientific, Waltham, Mass., USA).
The fluorescence intensities of the cell medium supernatant incubated with ABS were measured at 544 nm excitation and 590 nm emission using a 1420 Victor3 multi-label plate reader (Perkin Elmer, Waltham, Mass., USA). The percentage of alamar blue reduction, the percentage difference in cell population between the treated and untreated cells, and the percentage of cell growth inhibition, were determined using a combination of the ABS and cell viability studies. In this way, the cytotoxicity of the respective conjugated drug molecules was obtained from equations 1 and 2 below.
where, FIsample=fluorescence intensity of the (treated or untreated) cells, FI10% AB=fluorescence intensity of 10% alamar blue reagent (negative control) and FI10% R=fluorescence intensity of 100% reduced alamar blue (positive control).
FItreated=fluorescence intensity of treated cells and FIcells=fluorescence intensity of untreated cells

CCCCCC1=C/C(=C/c2[nH]c(-c3ccc[nH]3)cc2OC)N=C1C [PGS, 4-methoxy-5-[(Z)-(5-methyl-4-pentyl-2H-pyrrol-2-ylidene)methyl]-1H,1′H-2,2′-bipyrrole, reference compound]
structural changes of actin filaments, vinculin and nuclei (confocal) (MDA-MB-231 cells): degradation, disorganization and depolymerization of the actin filaments and vinculin structures
histological / pathological changes in liver, lung and kidneys (H&E) [1]: no significant histological or significant pathological changes
cell viability (percentage alamar blue reduction) in siRNA-treated cells [2]: no significant differences in cell viability
resulting tumor volume [3, 6]: 90.11 mm^3
xenograft tumor size [3, 7]: 300.3 mm^3
final tumor sizes [3, 8]: ~29.42 mm^3
tumor outcome, early stage [3, 8]: some tumor shrinkage

LHRH-PGS: [D-Lys6]LHRH analog conjugated to prodigiosin at the epsilon (ε) amino side chain of the D-Lys6 moiety
structural changes of actin filaments, vinculin and nuclei (confocal) (MDA-MB-231 cells): more evident
histological / pathological changes in liver, lung and kidneys (H&E) ([1]; listed as [D-Lys6]LHRH-PGS): did not induce any degeneration in the primary organs
histological / pathological changes in liver, lung and kidneys (H&E) [1, 9]: no significant histological or significant pathological changes; also recorded: no evidence of liver cell hyaline degeneration and necrosis; also recorded: no pulmonary edema or hyperplasia; also recorded: glomerular volume of the kidneys was normal; also recorded: no chemotherapeutic drug-induced histological changes and tumor metastasis
toxicity / side effects (clinical signs, mortality, body weight) ([1]; listed as LHRH-prodigiosin): No clinical signs, differences in mortality, or changes in body weight
toxicity / side effects (clinical signs, mortality, body weight) ([1]; listed as [D-Lys6]LHRH-conjugated prodigiosin): minimal; also recorded: without any evidence of toxicity
cytotoxicity on co-incubation of LHRH (MDA MB 231 cells): decreased the cytoxicity
percentage alamar blue reduction (cell viability) (MDA MB 231 cells; 15 μM, 25 μM, 30 μM, 18, 24, 48 and 72 h post-treatment): increasing drug concentration had a greater effect on cell growth
percentage cell growth inhibition (MDA MB 231 cells; 15 μM, 25 μM, 30 μM, 72 h): effective at inhibiting the growth
adhesion force relative to unconjugated PGS, early stage ([4]; early stage breast tumor): nearly three times
adhesion force relative to unconjugated PGS, late stage ([4]; late stage breast tumor): four times
adhesion force relative to unconjugated PGS, mid stage ([4]; mid stage breast tumor): three times
structural changes of tumor cells/tissue (TEM) ([5]; 21-day and 28-day treatment groups): greater structural changes
histopathology of tumor tissue (necrosis) [5]: exhibited disorder and different sizes
histopathology of tumor tissue (necrosis) [5, 9]: higher levels of necrosis in the tumors
cell viability (percentage alamar blue reduction) in siRNA-treated cells [2]: no significant differences in cell viability
anti-tumor effect over early, mid and late stages ([3]; listed as LHRH-prodigiosin, 10 mg/kg): decrease, shrink or eliminate tumors
anti-tumor effect over early, mid and late stages ([3]; listed as [D-Lys6]LHRH-conjugated PGS, 10 mg/kg): significant anti-tumor effects; also recorded: highest therapeutic activity
anti-tumor effect over early, mid and late stages ([3]; listed as [D-Lys6]LHRH-conjugated prodigiosin, 10 mg/kg): shrunk or eliminate the induced tumor
decrease in xenograft volume compared to unconjugated PGS [3, 6]: 95.6%
resulting tumor volume [3, 6]: 3.93 mm^3
tumor outcome, mid stage [3, 6]: significant shrinkage
percentage reduction in xenograft tumor volume compared to unconjugated PGS [3, 7]: 83.4%
xenograft tumor size [3, 7]: 49.9 mm^3
tumor outcome, late stage ([3]; 28-day (late stage) group, 10 mg/kg per week IV, two weeks, 10 mg/kg): significant tumor shrinkage
tumor outcome, late stage ([3]; 28-day (late stage) group, 10 mg/kg per week IV, two weeks, listed as [D-Lys6]LHRH-conjugated prodigiosin, 10 mg/kg): significant shrinkage
tumor outcome, early stage ([3]; day 14 (early stage) group, two IV injections (one per week) of 10 mg/kg, listed as LHRH-conjugated prodigiosin, 10 mg/kg): elimination of early stage breast tumors
tumor outcome, early stage ([3]; day 14 (early stage) group, two IV injections (one per week) of 10 mg/kg, listed as [D-Lys6]LHRH-conjugated PGS, 10 mg/kg): tumor elimination
tumor outcome, early stage ([3]; day 14 (early stage) group, two IV injections (one per week) of 10 mg/kg, listed as [D-Lys6]LHRH-conjugated prodigiosin, 10 mg/kg): eliminated the tumors
